Test [1] concerns the target T1, SfFS (Salvia fruticosa, UniProt A0A0C5QRZ2).
T1 construct: gene CYP76AH24; P450 ORF in pWTDH3, expressed in S. cerevisiae AM104 with SfCPSm, SfKSLm and poplar reductase PtCPR2; also N. benthamiana with AtCPR1
T1 sequence (A0A0C5QRZ2 1-492): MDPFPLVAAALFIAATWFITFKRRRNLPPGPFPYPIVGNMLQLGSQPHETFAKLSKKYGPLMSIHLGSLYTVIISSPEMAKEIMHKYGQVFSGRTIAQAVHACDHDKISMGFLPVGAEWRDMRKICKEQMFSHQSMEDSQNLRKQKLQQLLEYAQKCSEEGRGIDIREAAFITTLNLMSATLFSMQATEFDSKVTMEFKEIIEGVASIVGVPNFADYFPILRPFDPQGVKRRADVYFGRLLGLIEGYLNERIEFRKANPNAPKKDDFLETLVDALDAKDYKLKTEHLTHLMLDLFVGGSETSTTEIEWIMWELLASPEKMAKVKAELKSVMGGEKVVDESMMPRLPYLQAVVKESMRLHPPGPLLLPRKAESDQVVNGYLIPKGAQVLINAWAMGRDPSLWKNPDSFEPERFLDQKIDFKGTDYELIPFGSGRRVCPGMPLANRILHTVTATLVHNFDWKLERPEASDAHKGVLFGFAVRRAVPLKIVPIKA
The test can be described thus: yeast co-expression, GC-MS. It counts as cell-based. Conditions: co-expressed SfCPS, SfKSL, PtCPR2; also shown in N. benthamiana.

For test [2], the target named is T2, RoFS1 (Salvia rosmarinus, UniProt A0A0C5Q4Y6).
T2 construct: gene CYP76AH22; P450 ORF in pWTDH3, expressed in S. cerevisiae AM113 with RoCPS1m, RoKSL1f and poplar reductase PtCPR2; also N. benthamiana with SfCPS, SfKSL, AtCPR1
T2 sequence (A0A0C5Q4Y6 1-493): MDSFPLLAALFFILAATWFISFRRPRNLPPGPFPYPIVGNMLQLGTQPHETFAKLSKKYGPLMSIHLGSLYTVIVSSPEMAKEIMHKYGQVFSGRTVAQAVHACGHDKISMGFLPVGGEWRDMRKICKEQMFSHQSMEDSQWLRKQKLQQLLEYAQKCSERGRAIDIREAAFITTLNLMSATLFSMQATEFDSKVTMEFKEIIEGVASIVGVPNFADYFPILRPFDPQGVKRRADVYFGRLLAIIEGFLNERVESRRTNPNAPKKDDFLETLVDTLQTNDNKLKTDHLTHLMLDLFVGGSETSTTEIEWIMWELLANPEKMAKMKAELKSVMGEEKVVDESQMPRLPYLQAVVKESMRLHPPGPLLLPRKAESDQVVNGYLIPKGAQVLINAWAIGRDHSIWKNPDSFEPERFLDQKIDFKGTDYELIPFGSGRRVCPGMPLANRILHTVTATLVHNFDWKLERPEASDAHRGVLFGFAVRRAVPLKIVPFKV
The test can be described thus: yeast co-expression, GC-MS. It counts as cell-based. Conditions: co-expressed RoCPS1m, RoKSL1f, PtCPR2; also shown in N. benthamiana.

Test [3] concerns the target T3, RoFS2 (Salvia rosmarinus, UniProt A0A0C5QEW3).
T3 construct: gene FS2; P450 ORF in pWTDH3, expressed in S. cerevisiae AM113 with RoCPS1m, RoKSL1f and poplar reductase PtCPR2; also N. benthamiana with SfCPS, SfKSL, AtCPR1
Put plainly: yeast co-expression, GC-MS. It counts as cell-based. Conditions: co-expressed RoCPS1m, RoKSL1f, PtCPR2; also shown in N. benthamiana.

The target in test [4] is T4, SfCPS (Salvia fruticosa, UniProt A0A0A7RQ84).
T4 construct: gene CDS; pseudomature SfCPSm without predicted N-terminal transit peptide (30 residues); full ORF 2391 bp
Put plainly: GC-MS of dephosphorylated product (copalol). It counts as biochemical. Conditions: pH 7.0, 20 mM MgCl2, 0.2 mM MnCl2, 60 uM GGDP, room temperature overnight.

Test [5] has as its target T5, SfKSL (Salvia fruticosa, UniProt A0A0C5QH30).
T5 construct: gene KSL; pseudomature SfKSLm without predicted N-terminal transit peptide (49 residues); full ORF 1755 bp; lacks gamma domain
T5 sequence (A0A0C5QH30 50-584): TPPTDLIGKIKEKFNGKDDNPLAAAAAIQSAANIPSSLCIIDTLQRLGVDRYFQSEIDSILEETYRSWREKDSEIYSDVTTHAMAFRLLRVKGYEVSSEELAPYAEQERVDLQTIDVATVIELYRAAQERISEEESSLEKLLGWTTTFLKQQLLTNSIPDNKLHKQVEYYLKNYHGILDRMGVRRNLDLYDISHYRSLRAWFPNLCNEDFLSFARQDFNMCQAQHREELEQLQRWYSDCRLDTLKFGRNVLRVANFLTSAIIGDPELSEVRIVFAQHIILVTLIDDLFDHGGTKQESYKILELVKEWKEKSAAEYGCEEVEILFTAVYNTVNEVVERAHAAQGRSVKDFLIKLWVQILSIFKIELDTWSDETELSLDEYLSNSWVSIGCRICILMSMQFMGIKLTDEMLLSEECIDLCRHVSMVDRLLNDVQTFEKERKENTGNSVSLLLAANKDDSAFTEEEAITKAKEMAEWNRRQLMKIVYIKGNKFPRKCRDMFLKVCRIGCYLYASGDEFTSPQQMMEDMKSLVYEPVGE
The test can be described thus: coupled assay with SfCPS, GC-MS; NMR of product from yeast. It counts as biochemical. As to conditions: CDP formed in situ by SfCPS from 200 uM GGDP; pH 7.0, 20 mM MgCl2, 0.2 mM MnCl2, room temperature overnight.

Test [6] addresses T5, SfKSL. Put plainly: coupled assay with SfCPS, GC-MS of product. It counts as biochemical. Conditions: CDP formed in situ by SfCPS from 200 uM GGDP; pH 7.0, 20 mM MgCl2, 0.2 mM MnCl2, room temperature overnight.

Molecules are shown by their SMILES.

T4 sequence (A0A0A7RQ84 entry or part of it): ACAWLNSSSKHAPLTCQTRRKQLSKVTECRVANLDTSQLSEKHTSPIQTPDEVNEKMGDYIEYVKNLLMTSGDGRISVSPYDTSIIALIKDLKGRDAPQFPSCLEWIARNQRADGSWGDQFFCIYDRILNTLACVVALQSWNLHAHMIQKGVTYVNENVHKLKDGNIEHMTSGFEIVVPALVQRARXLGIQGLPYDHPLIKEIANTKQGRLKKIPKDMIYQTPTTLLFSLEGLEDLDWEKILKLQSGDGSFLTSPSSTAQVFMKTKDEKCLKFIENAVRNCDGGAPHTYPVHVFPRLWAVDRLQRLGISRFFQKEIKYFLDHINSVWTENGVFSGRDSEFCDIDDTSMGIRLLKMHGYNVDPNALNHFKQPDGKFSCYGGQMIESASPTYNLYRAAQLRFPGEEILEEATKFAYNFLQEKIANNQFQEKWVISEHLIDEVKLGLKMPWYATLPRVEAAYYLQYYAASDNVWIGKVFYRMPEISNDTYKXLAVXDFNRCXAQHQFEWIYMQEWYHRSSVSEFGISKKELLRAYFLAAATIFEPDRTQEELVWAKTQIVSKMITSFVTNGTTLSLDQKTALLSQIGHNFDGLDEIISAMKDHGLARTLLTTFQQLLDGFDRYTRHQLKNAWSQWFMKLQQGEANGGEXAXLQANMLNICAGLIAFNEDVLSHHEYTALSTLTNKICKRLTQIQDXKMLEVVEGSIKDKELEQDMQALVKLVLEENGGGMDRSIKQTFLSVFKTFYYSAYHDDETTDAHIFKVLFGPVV
T3 sequence (A0A0C5QEW3 entry or part of it): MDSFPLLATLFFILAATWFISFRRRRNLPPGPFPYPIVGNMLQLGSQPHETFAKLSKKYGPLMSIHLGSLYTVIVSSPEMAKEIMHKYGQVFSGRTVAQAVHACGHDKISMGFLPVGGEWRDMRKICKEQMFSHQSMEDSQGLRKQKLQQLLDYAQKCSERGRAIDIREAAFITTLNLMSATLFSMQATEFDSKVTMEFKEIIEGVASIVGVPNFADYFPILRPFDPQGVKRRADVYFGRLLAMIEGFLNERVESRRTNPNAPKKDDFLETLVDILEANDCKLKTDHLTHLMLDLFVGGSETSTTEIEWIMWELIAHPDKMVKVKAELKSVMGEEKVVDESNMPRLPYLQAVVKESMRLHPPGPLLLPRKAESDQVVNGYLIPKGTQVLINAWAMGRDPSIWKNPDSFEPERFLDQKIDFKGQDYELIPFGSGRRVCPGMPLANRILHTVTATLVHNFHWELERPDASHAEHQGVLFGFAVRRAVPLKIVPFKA

As for `CC(C)c1cc2c(cc1O)[C@@]1(C)CCCC(C)(C)[C@@H]1CC2` [ferruginol], the “yeast co-expression, GC-MS” value in test [1], in test [2] and in test [3] was “GC-MS revealed the formation of ferruginol in all three strains analyzed” each time.
Turning to `CC(C)=CCC/C(C)=C/CC/C(C)=C/CC/C(C)=C/COP(=O)(O)OP(=O)(O)O` [GGDP], the “GC-MS of dephosphorylated product (copalol)” value in test [4] is “His-tagged SfCPS protein was affinity purified and incubated with GGDP”.
Regarding `CC(C)C1=CCC2=C(CC[C@H]3C(C)(C)CCC[C@]23C)C1` [miltiradiene], the “coupled assay with SfCPS, GC-MS; NMR of product from yeast” value in test [5] is recorded as “revealed a peak, which most closely corresponded to miltiradiene”.
`C=C1CC[C@H]2C(C)(C)CCC[C@]2(C)[C@H]1CC/C(C)=C/COP(=O)(O)OP(=O)(O)O` [CDP]: the “coupled assay with SfCPS, GC-MS of product” value in test [6] was “simultaneously with SfCPS in order to provide the necessary CDP substrate”. The “GC-MS of dephosphorylated product (copalol)” value in test [4] (detected as copalol after alkaline phosphatase) was “identify the dephosphorylated product of the SfCPS catalyzed reaction as copalol”.

The values above are taken from article PMC4447455, “Towards Elucidating Carnosic Acid Biosynthesis in Lamiaceae: Functional Characterization of the Three First Steps of the Pathway in Salvia fruticosa and Rosmarinus officinalis” (PLoS ONE, 2015).
